Experimental data: patent publication US12435032B2, “L-γ-methyleneglutamine compounds and methods of use” (University of Mississippi, priority 2019, dated 2025)
Where two headings read alike, the source gives them in different places.

Tests used:
[1] = Cytotoxicity (cell death, propidium iodide) in MCF-10A cells; type: cell-based; settings: human, MCF-10A non-cancerous breast cells
Procedure: To assess the selectivity of cytotoxicity for cancer cells, all drugs and compounds were screened against MCF-10A, non-cancerous breast cells.
(§1) Cells were incubated for 15 minutes at 37° C.

[2] = tested on: triple-negative MDA-MB-231 breast cancer cells; experiment: Growth inhibition of MDA-MB-231 cells; type: cell-based; settings: dose-response 0.32-320 μM; for IC50: Homo sapiens
Procedure: (§2) Olaparib was chosen because it is one of a few FDA-approved chemotherapeutics for triple-negative breast cancer.
as §1

[3] = tested on: MCF-10A non-cancerous breast cells; experiment: Growth inhibition of MCF-10A cells (negative control line); type: cell-based; settings: Homo sapiens, dose-response 0.32-320 μM
Procedure: as §2, §1

[4] = tested on: triple-negative MDA-MB-231 breast cancer cells
[5] = tested on: SK-BR-3 breast cancer cells; experiment: Cytotoxicity (cell death, propidium iodide) in SK-BR-3 cells; type: cell-based; settings: for EC50: Homo sapiens, dose-response 0.32-320 μM
[6] = tested on: triple-negative MDA-MB-231 breast cancer cells; experiment: cells; settings: Homo sapiens, read-out: Cytotoxicity EC50
[7] = tested on: SK-BR-3 (ER−/PR−/HER2+) breast cancer cells; experiment: Growth inhibition of SK-BR-3 cells; type: cell-based; settings: Homo sapiens, dose-response 0.32-320 μM
Procedure: as §2, §1

[8] = tested on: MCF-7 (ER+/PR+/HER2−) breast cancer cells; experiment: Growth inhibition of MCF-7 cells (Hoechst 33342 fluorescence vs non-treated wells); type: cell-based; settings: Homo sapiens, dose-response 0.32-320 μM
Procedure: as §2, §1

[9] = tested on: MCF-7 breast cancer cells; experiment: Cytotoxicity (cell death, propidium iodide) in MCF-7 cells; type: cell-based; settings: Homo sapiens, MCF7, dose-response 0.32-320 μM, read-out: Cytotoxicity EC50

Question: What does the source list for `C=C(C[C@H](N)C(=O)O)C(=O)Nc1ccccc1` [Compound 3, (S)-2-amino-4-(phenylcarbamoyl) pent-4-enoic acid]?
Answer: EC50 at 24 h ([1]; 24 h exposure): > 1000 µM; EC50 at 24 h ([1]; head prints 24 h): > 1000 µM; IC50 ([2]; MDA-MB-231, 24 h exposure): 777 µM; IC50 ([2]; MDA-MB-231, 72 h exposure): 814 µM; Growth Inhibition IC50 ([2]; MDA-MB-231, 72 h exposure): poorer potency than olaparib; IC50 ([3]; 24 h exposure): > 1000 µM; IC50 ([3]; 72 h exposure): > 1000 µM; cytotoxic EC50 compared with positive controls [4]: significantly greater than tamoxifen; EC50 ([5]; SK-BR-3, 24 h exposure): 0.2 µM; EC50 ([5]; SK-BR-3, 72 h exposure): > 1000 µM; cytotoxicity EC50 ([5]; SK-BR-3, 72 h / after the first 24 h): much reduced toxicity; EC50 ([6]; MDA-MB-231, 24 h): 541 µM; EC50 ([6]; MDA-MB-231, 72 h): 409 µM; IC50 ([7]; SK-BR-3, 24 h exposure): 36.9 µM; IC50 ([7]; SK-BR-3, 72 h exposure): 1.7 µM; IC50 ([8]; MCF7, 24 h, MCF-7, 24 h exposure): > 1000 µM; IC50 ([8]; MCF7, 72 h, MCF-7, 72 h exposure): 250 µM; EC50 ([9]; MCF-7, 24 h exposure): 421 µM; EC50 ([9]; MCF-7, 72 h exposure): 2 µM
